Common to all, as to type: physicochemical
A short description of series [1]: Stability in 100% propylene glycol (PG) solution. The note with it: 50° C., in the dark, after 4 weeks. The text has this:
(§1) Thus, the ability to produce a shelf-stable parenteral formulation is unexpected.

Series [2] can be described thus: Stability in 100% polyethylene glycol (PEG) 400 solution. The following applies: 100% PEG 400, 50° C., in the dark, after 4 weeks.
From the text: as §1

The nature of the next series: Solubility in water.
From the text: as §1

On to `Cc1ccc(Nc2c(F)cccc2Cl)c(CC(=O)[O-])c1.[K+]` [Potassium salt of 5-methyl-2-(2′-chloro-6′-fluoroanilino)phenylacetic acid], for which the “degradation in a solution of 100% PG” value in series [1] is given as 7%. Moreover, the “degradation in a solution of 100% PEG 400” value in series [2] worked out at 5%. On to `Cc1ccc(Nc2c(F)cccc2Cl)c(CC(=O)O)c1` [5-methyl-2-(2′-chloro-6′-fluoroanilino)phenylacetic acid], for which the solubility in water entry in the series “Solubility in water” is recorded as “relatively insoluble”.

(Values after patent publication US20080287543A1, “Pharmaceutical composition comprising 5-methyl-2 (2'-chloro-6'-fluoroanillino) phen ylacetic acid” (priority 2003, published 2008).)
